Experiments:
[1] = tested on: DMT1-deficient Caco-2 monolayers; assay: 55Fe uptake and transport in DMT1-deficient Caco-2 monolayers; conditions: for iron uptake and transepithelial transport: apical addition (hinokitiol 500 nM), pH 5.5 apical, pH 7.4 basolateral, four hours
Experimental: Media from differentiated Caco-2 monolayers (P25-50, 21-28 days post seeding) grown on PET inserts in 6-well plates was aspirated, and monolayers were rinsed with PBS. 2 mL of basolateral fluid (serum-free DMEM at pH=7.4 in 10 mM HEPES buffer) was added to the basolateralside, and 1 mL of apical fluid (serum-free DMEM at pH=5.5 in 10 mM MES buffer) containing 200 nM ^55FeCl3 or the indicated concentration of FeCl3 and either DMSO vehicle, hinokitiol, C2deOHino, deferiprone, PIH, SIH, or deferoxamine mesylate (Sigma D9533) (500 nM Hino/C2deOHino for DMT1-deficiency, 1 μM Hino/C2deOHino for FPN1-deficiency, or indicated concentration of small molecule from a 1000X stock in DMSO) was added to the apical side via addition on the wall of the membrane insert without disrupting the cell monolayer. The monolayers were then incubated for four hours at 37° C. unless otherwise noted. A 100 μL aliquot of the basolateral fluid was removed, diluted in scintillation cocktail, and radioactivity was determined on a liquid scintillation counter to quantify relative amounts of ^55Fe transport. To determine intracellular ^55Fe, the basolateral and apical media was removed, and the monolayer was rinsed with PBS (×2). The cells were then lysed with 500 μL of 200 mM NaOH with nutator mixing overnight, and radioactivity was determined on a liquid scintillation counter after diluting the cell lysate in scintillation cocktail. All values were normalized to shControl monolayers unless otherwise noted. Absolute iron levels were determined through calibration of ^55Fe radioactivity levels with known standards and average mg of protein per membrane was determined by protein lysis with RIPA buffer containing protease inhibitors and quantified through a BCA kit according to manufacturer instructions.
TEER determination in Caco-2 monolayers (FIG. 12D and FIG. 14L) To determine Caco-2 membrane integrity, transport studies were performed as described above, except for the use of non-radioactive iron instead of ^55FeCl3. At the indicated time points, the transepithelial electrical resistance (TEER) was determined with an epithelial voltohmmeter and compared to the TEER of the membrane at the beginning of the experiment.

[2] = tested on: Mfrn1-deficient MEL cells; assay: Hemoglobinization of Mfrn1-deficient MEL cells; format: cell-based, mouse; conditions: 1 μM
Experimental: Differentiation of MEL Cells with DMSO (FIG. 3D) To perform differentiation experiments with MEL cells (39), the indicated MEL cells were diluted to 1×10^5 cells/mL in MEL Complete media containing 10 μM iron (III) citrate and 2% DMSO in the absence or presence of 1 μM hinokitiol or C2deOHino (added from 1000X stock in DMSO) in 12-well plates. Cells were then incubated at 37° C. for 72 hours unless otherwise noted.
Hemoglobinized MEL cells were quantified three days after DMSO induction through o-dianisidine staining similar to previously reported (74). Cells were centrifuged three days after induction and rinsed with PBS. […] The number of stained cells were then quantified via ImageJ analysis and compared to the number of total cells in each image. […]
MEL cells were induced for differentiation as described above and incubated at 37° C. for 70 hours before addition of a saturated iron-transferrin (^55Fe2Tf) solution (40 nM final concentration from a 10 μM ^55Fe2Tf stock). […] After completion, the cells were counted with a hemocytometer, the media was removed after centrifugation, the cells were rinsed with PBS (×3), and the cell suspension was diluted in scintillation cocktail and radioactivity was determined. […] After completion, the cells were counted with a hemocytometer, the media was removed after centrifugation, and the cells were rinsed with PBS (×3). […]

DMT1-deficient MEL cells = assay: Live cell fluorescence imaging and flow cytometry of compartmentalized iron in MEL cells; format: cell-based, mouse; conditions: for endosomal oxyburst green, cytosolic calcein green and mitochondrial RPA fluorescence: 1 μM
Experimental: To visualize cytosolic and mitochondrial iron, confocal imaging of calcein green and RPA fluorescence was performed, respectively. MEL cells were induced for differentiation as described above. […] The cells were incubated for an additional 2 hours, and then were centrifuged and rinsed with PBS. […] The cells were then incubated at 37° C. for 15 minutes. […] The cells were then imaged within 10 minutes on a LSM710 microscope. Relative calcein green and RPA fluorescence per cell was determined by ImageJ analysis using >100 cells per experiment. […] MEL cells were induced for differentiation as described above. […] The cells were incubated for an additional 2 hours, and then were centrifuged and rinsed with PBS. The cells were then re-suspended in DMEM-HEPES buffer, and H2O2 (50 mM final concentration) was added. The cells were incubated at room temperature, and the oxyburst green fluorescence was then determined 10 minutes after addition of H2O2 on a LSM710 microscope. Relative oxyburst green fluorescence per cell was determined by ImageJ analysis using >100 cells per experiment. […] Median fluorescence was then normalized to shDMT1 for each dye. […] Median fluorescence was then normalized to shDMT1 for each dye.

Caco-2 = assay: WST-8 toxicity in Caco-2 cells
Experimental: Determination of small molecule-mediated toxicity in Caco-2, MEL, and/or J774 cells was performed according to manufacturer instructions using a WST-8 kit (Cayman Chemical 10010199) similar to previously reported (76) using a 1000× stock of the indicated small molecule in DMSO to give the indicated final concentration.

SMILES | iron uptake and transepithelial transport [1] | hemoglobinization [2] | endosomal oxyburst green, cytosolic calcein green and mitochondrial RPA fluorescence (DMT1-deficient MEL cells) | EC90 (Caco-2; read-out: Toxicity (EC90), Wild Type Caco-2, WST-8 assay after ≥24 hours of incubation) | monolayer integrity (TEER) ([1]; 500 nM) | decrease of oxyburst green fluorescence (DMT1-deficient MEL cells; hinokitiol 1 μM) | observable toxicity (Caco-2; Caco-2 monolayers, hinokitiol 500 nM)
CC(C)c1cccc(=O)cc1 [C2deOHino, C2-deoxy hinokitiol] | did not promote both uptake and transport | no effect | no effect | > 100 µM | – | – | –
CC(C)c1cccc(=O)c(O)c1 [hinokitiol] | restored uptake and transport | restored hemoglobinization | decreases endosomal oxyburst green fluorescence and quenches calcein green and RPA fluorescence | – | did not disrupt monolayer integrity | 2.1 fold | no observable toxicity

— patent US12084411B2, “Hinokitiol analogues, methods of preparing and pharmaceutical compositions thereof” (The Board of Trustees of the University of Illinois, priority 2018, dated 2024)
